Test results: ChEMBL document CHEMBL4428052, “Substrate-Guided Design of Selective FXIIa Inhibitors Based on the Plant-Derived Momordica cochinchinensis Trypsin Inhibitor-II (MCoTI-II) Scaffold” (J Med Chem, 2016)
Peptide text beside a SMILES is read from it.

Legend:
[1] = biological target: Coagulation factor X (Homo sapiens, UniProt P00742); test: Inhibition of factor 10a (unknown origin) using Ac-QRSRpNA as substrate incubated for 30 mins measured for 7 mins by morrison plot analysis
[2] = species on record: Homo sapiens; test: Selectivity ratio of Ki for human plasma kallikrein to Ki for factor 12a (unknown origin)
[3] = biological target: Urokinase-type plasminogen activator (Homo sapiens, UniProt P00749); test: Inhibition of uPA (unknown origin) incubated for 30 mins measured for 7 mins by morrison plot analysis
[4] = biological target: Prothrombin (Homo sapiens, UniProt P00734); test: Inhibition of thrombin (unknown origin) using Ac-ATPRpNA as substrate incubated for 30 mins measured for 7 mins by morrison plot analysis
[5] = species on record: Homo sapiens; test: Selectivity ratio of Ki for factor 10a (unknown origin) to Ki for factor 12a (unknown origin)
[6] = biological target: T1, Coagulation factor XII (Homo sapiens, UniProt P00748); test: Inhibition of factor 12a (unknown origin) using Ac-QRFRpNA as substrate incubated for 30 mins measured for 7 mins by morrison plot analysis
T1 sequence (P00748 whole entry): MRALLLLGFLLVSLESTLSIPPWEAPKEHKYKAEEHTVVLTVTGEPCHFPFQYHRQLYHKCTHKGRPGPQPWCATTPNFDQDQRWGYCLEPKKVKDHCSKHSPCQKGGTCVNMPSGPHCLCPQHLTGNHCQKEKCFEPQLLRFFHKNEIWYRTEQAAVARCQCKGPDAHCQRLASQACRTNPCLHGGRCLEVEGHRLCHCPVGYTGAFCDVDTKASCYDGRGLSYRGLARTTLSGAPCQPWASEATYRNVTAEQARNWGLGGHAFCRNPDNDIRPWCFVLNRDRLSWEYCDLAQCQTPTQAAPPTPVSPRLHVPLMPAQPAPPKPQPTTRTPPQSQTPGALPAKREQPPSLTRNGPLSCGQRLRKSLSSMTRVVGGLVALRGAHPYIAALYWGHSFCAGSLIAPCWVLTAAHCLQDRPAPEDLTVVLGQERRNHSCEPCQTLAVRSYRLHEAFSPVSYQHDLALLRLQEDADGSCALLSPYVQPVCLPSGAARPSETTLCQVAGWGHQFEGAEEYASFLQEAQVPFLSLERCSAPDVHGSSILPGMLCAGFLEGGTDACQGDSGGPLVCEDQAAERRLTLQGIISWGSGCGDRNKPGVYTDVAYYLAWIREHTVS

[7] = species on record: Homo sapiens; test: Selectivity ratio of Ki for factor 12a (unknown origin) to Ki for factor 10a (unknown origin)

Coagulation factor X, sequence (P00742 41-179 limits assumed): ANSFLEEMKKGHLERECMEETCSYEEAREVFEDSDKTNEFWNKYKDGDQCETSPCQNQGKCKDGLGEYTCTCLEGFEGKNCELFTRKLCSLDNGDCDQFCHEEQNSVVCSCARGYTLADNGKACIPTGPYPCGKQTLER
Coagulation factor X, sequence (P00742 235-488 limits assumed): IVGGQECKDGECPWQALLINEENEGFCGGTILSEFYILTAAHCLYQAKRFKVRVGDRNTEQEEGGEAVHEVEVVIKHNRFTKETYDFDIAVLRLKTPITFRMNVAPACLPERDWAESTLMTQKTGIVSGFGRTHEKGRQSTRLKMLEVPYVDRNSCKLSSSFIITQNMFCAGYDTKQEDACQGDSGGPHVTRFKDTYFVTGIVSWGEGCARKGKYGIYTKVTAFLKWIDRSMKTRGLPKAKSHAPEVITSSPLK

SMILES | Ki [1] | Ratio Ki [2] | Ki [3] | Ki [4] | Ratio Ki [5] | Ki [6] | Ratio Ki [7]
CC[C@H](C)[C@@H]1NC(=O)[C@H](CCCNC(=N)N)NC(=O)[C@H](Cc2ccccc2)NC(=O)[C@H](NC(=O)[C@H](CCC(N)=O)NC(=O)CNC(=O)[C@@H](N)CCCCN)CSSC[C@H]2NC(=O)[C@H](C)NC(=O)CNC(=O)[C@@H]3CCCN3C(=O)[C@@H]3CSSC[C@H](C(=O)NCC(=O)N[C@@H](CO)C(=O)NCC(=O)N[C@@H](CO)C(=O)N[C@@H](CC(=O)O)C(=O)O)NC(=O)[C@H](Cc4ccc(O)cc4)NC(=O)CNC(=O)[C@H](CC(N)=O)NC(=O)CNC(=O)[C@H](CCCNC(=N)N)NC(=O)[C@H](CSSC[C@H](NC(=O)[C@H](CCCCN)NC(=O)[C@H](CCCCN)NC(=O)[C@H](Cc4c[nH]c5ccccc45)NC1=O)C(=O)N[C@@H](CCCNC(=N)N)C(=O)N[C@@H](CCCNC(=N)N)C(=O)N[C@@H](CC(=O)O)C(=O)N[C@@H](CO)C(=O)N[C@@H](CC(=O)O)C(=O)N3)NC(=O)[C@H]([C@@H](C)CC)NC2=O | > 100000 nM | 9 | > 50000 nM | > 50000 nM | – | – | –
CC[C@H](C)[C@@H]1NC(=O)[C@H](CCCNC(=N)N)NC(=O)[C@H](Cc2ccccc2)NC(=O)[C@H](NC(=O)[C@H](CCC(N)=O)NC(=O)CNC(=O)CN)CSSC[C@H]2NC(=O)[C@H](C)NC(=O)CNC(=O)[C@@H]3CCCN3C(=O)[C@@H]3CSSC[C@H](C(=O)NCC(=O)N[C@@H](CO)C(=O)NCC(=O)N[C@@H](CO)C(=O)N[C@@H](CC(=O)O)C(=O)O)NC(=O)[C@H](Cc4ccc(O)cc4)NC(=O)CNC(=O)[C@H](CC(N)=O)NC(=O)CNC(=O)[C@H](CCCNC(=N)N)NC(=O)[C@H](CSSC[C@H](NC(=O)[C@H](CCCCN)NC(=O)[C@H](CCCCN)NC(=O)[C@H](CC(C)C)NC1=O)C(=O)N[C@@H](CCCNC(=N)N)C(=O)N[C@@H](CCCNC(=N)N)C(=O)N[C@@H](CC(=O)O)C(=O)N[C@@H](CO)C(=O)N[C@@H](CC(=O)O)C(=O)N3)NC(=O)[C@H]([C@@H](C)CC)NC2=O | 460 nM | – | > 10000 nM | > 10000 nM | 4 | – | –
CC(=O)N[C@@H](CCC(N)=O)C(=O)N[C@@H](CCCNC(=N)N)C(=O)N[C@@H](CO)C(=O)N[C@H](C=O)CCCNC(=N)N (Ac-QRSR-aldehyde) | 360 nM | – | – | – | – | 2390 nM | 6
